Data on one compound can be found in patent publication US4737518A, “Lipid derivatives, their production and use” (Takeda Chemical Industries, Ltd., priority 1984, dated 1988).

One experiment concerns PAF-induced hypotension. Put plainly: Inhibitory activity against PAF-induced hypotension in rats. The class given is in vivo, rat (male Spraque-Dawley). Particulars: PAF 0.3 μg/kg i.v. How it is done:
Inhibitory activity against PAF-induced hypotension in rats
Male Spraque-Dawley rats, with a body weight of about 400 g, were used under pentobarbital sodium (50 mg/kg, intravenous administration) anesthesia. A cannula was inserted into the femoral artery and secured in position for measurement of blood pressure and another cannula into the femoral vein for administration of a solution of the drug. The blood pressure was measured via a pressure transducer and recorded on a polygraph. First, 0.3 μg/kg of PAF was administered intravenously and the hypotensive response was recorded.
The inhibitory activity against PAF-induced hypotension was estimated from the rate of PAF-induced hypotensive response (Δ mmHg) after the drug administration to hypotensive response (Δ mmHg) by PAF before the drug administration.

The test system of experiment [1] is endotoxin-induced hypotension. Put plainly: Anti-endotoxin shock activity in rats. Particulars: endotoxin 15 mg/kg i.v., one minute after. The class given is in vivo, rat (male Spraque-Dawley). Here is the method:
Anti-endotoxin shock activity in rats
Male Spraque-Dawley rats weighting about 400 g were used under pentobarbital sodium (50 mg/kg, i.v.) anesthesia. A cannula was inserted into the femoral artery and secured in position for measurement of blood pressure and another cannula into femoral vein for administration of a solution of the drug. The blood pressure was measured via a pressure transducer and recorded on a polygraph. First, a suspension of endotoxin (15 mg/kg) [Lipopolysaccharide W.E. coli 0111: B4, Wako Pure Chemical] in physiological saline was administered intravenously and the maximum hypotensive response (Δ mmHg) occurring 3 to 5 minutes after administration was recorded. Simultaneously, the compound of Example 108 was dissolved in physiological saline and administered intravenously in a dose of 1 to 100 μg/kg. The restortion rate against endotoxin-induced hypotension one minute after the administration was calculated. The presence of preventive activity against endotoxin shock was judged from the strength of the restoration rate.

The next experiment has as its system B16-BL6 cells. Put plainly: Cell growth inhibition assay, B16-BL6. The class given is cell-based. Particulars: Mus musculus, 72 h, concentration giving T/C 50%, day 4, read-out: ED50 (the source's name). Here is the method:
(§1) 2×10^4 cells per well charged with GIT medium for KB cells (human epidermoid carcinoma cells), A549 cells (human lung carcinoma cells) and HSC-1 cells (human skin squamous carcinoma cells), and 4×10^4 cells for B16-BL6 cells (mouse melanoma cells) and 5×10^3 cells for Neuro-2a cells were inoculated. On day 1 (next day), various concentrations of the compound of Example 108 were added. On day 4, cells were suspended in a solution of trypsin-EDTA and the number of cells was counted. The ratio of cell number in treated culture to that in control culture was estimated as T/C (%) value. The concentration of the compound of Example 108 giving a value of T/C, 50% was defined as ED50.

In another experiment the test system is A549 cells. Put plainly: Cell growth inhibition assay, A549. The class given is cell-based. Particulars: Homo sapiens, 72 h, concentration giving T/C 50%, day 4, read-out: ED50 (the source's name). Here is the method:
as §1

For experiment [2], the system named is Neuro-2a cells. As to the kind of experiment: Cell growth inhibition assay, Neuro-2a. Particulars: Mus musculus, N2a, 72 h, concentration giving T/C 50%, day 4, read-out: ED50 (the source's name). The class given is cell-based. Here is the method:
as §1

The next experiment relates to KB cells. As to the kind of experiment: Cell growth inhibition assay, KB. The class given is cell-based. Particulars: Homo sapiens, 72 h, concentration giving T/C 50%, day 4, read-out: ED50 (the source's name). How it is done: as §1
In the next experiment the test system is HSC-1 cells. Put plainly: Cell growth inhibition assay, HSC-1. Type of experiment: cell-based. Particulars: Homo sapiens, 72 h, concentration giving T/C 50%, day 4, read-out: ED50 (the source's name). Here is the method:
as §1

Experiment [3] has as its system Neuro-2a cells. Put plainly: Effect on morphological differentiation of neuroblastoma Neuro-2a. The class given is cell-based, mouse. Particulars: three days, untreated 22. Here is the method:
Assay of the effects on inducing differentiation of HL-60 cells (human promyelocytic leukemia cells) and Neuro-2a cells (mouse neuroblastoma cells):
For Neuor-2a cells, 1×10^4 cells were inoculated into GIT medium (Daigo-eiyo Chemicals, Japan) and one day later various amounts of the compound of Example 108 were added. The cells were incubated for following three days at 37° C. in a 5% CO2 incubator.
The percentage of cells that were morphologically similar to neurocyte with extended neurite was determined by microscopical examination of cells more than 200.

Another experiment deals with HL-60 cells. Put plainly: Effect on inducing differentiation of HL-60 cells (NBT-positive cells). Type of experiment: cell-based, human. Particulars: 6 days. Here is the method:
Assay of the effects on inducing differentiation of HL-60 cells (human promyelocytic leukemia cells) and Neuro-2a cells (mouse neuroblastoma cells): RPMI-1640 medium (Flow Laboratories, Inc.) supplemented with 20% fetal calf serum (M.A. […] The culture was incubated at 37° C. in a 5% CO2 incubator for 6 days. […] The reaction was allowed to proceed at 37° C. for 20 minutes. The reaction was stopped by cooling with ice, and the cells were washed by means of centrifugation, followed by collecting 3-5×10^4 cells and by subjecting to centrifugation using Cytospin centrifuge to prepare a cell smear, which was fixed with methanol and stained with Kernechtrot solution. On each cell smear, the percentage of NBT-positive cells relative to live cells, […] by examination of a minimum of 200 cells, was expressed as the differentiation extent.

Experiment [4] has as its system rabbit platelet aggregation by PAF. As to the kind of experiment: Inhibitory activity on rabbit platelet aggregation by PAF. The class given is cell-based. Particulars: Oryctolagus cuniculus, PAF 1×10^-8 M, read-out: rate of inhibition of rabbit platelet aggregation by PAF.

Where “and” joins values, the source holds several entries; their conditions need not be identical. Identical values can stand only once.

Regarding `CCCCCCCCCCCCCCCCCCNC(=O)OCC(COC(=O)N(Cc1cccc[n+]1CC)C(C)=O)OC` (stereo not drawn) [Example 108, 1-Ethyl-2-[N-acetyl-N-(3-octadecylcarbamoyloxy-2-methoxypropyloxy)carbonyl]aminomethylpyridinium chloride], the Restoration rate was determined as 100% in the experiment on PAF-induced hypotension (0.1 mg/kg i.v., after 5 min); 55% in the experiment on PAF-induced hypotension (0.1 mg/kg i.v., after 60 min); 100% with PAF-induced hypotension (1 mg/kg i.v., after 5 min); 100% in the experiment with PAF-induced hypotension (1 mg/kg i.v., after 60 min). Besides, the “Restoration rate against endotoxin-induced hypotension” value in experiment [1] (0.01 mg/kg i.v., 2 rats, single values) is 100% and 59%; in experiment [1] (0.1 mg/kg i.v., 3 rats, mean ± standard error) it was 97 ± 1%. The IC50 turned out to be 2.5 µg/mL with B16-BL6 cells; 0.63 µg/mL with A549 cells; 5 µg/mL in the experiment with Neuro-2a cells [2]; 0.16 µg/mL in the experiment on KB cells; 0.63 µg/mL with HSC-1 cells. Also, the “% of cells with neurite” value in the experiment on Neuro-2a cells [3] (2.5 μg/ml) turned out to be 26%; with Neuro-2a cells [3] (5 μg/ml), 33%; in the experiment with Neuro-2a cells [3] (10 μg/ml), 35%; with Neuro-2a cells [3] (15 μg/ml) it was 44%; in the experiment with Neuro-2a cells [3] (20 μg/ml), 74%. Also, the “Maximum differentiation extent: Optimal conc.” value in the experiment on HL-60 cells came out at 0.63 µg/mL. For the same compound, the Emax in the experiment with HL-60 cells (Homo sapiens, HL-60, 144 h, at optimal conc., NBT-positive relative to live cells, read-out: Maximum differentiation extent: Differentiation) worked out at 83%. Moreover, in experiment [4] (test drug 3 × 10^-5 M), the inhibition at 30 µM came out at 100%. The inhibition at 3 µM in [4] (test drug 3 × 10^-6 M) came out at 100%. Further, the inhibition at 0.3 µM in [4] (test drug 3 × 10^-7 M) is 100%.
